# Measurements from patent publication US8586125B2, “Thermal treatment of an implantable medical device” (Advanced Cardiovascular Systems, Inc., priority 1999, dated 2013).
# Values joined by “and” are separate entries in the source; they are usually repeats but may differ in a detail not shown here. Identical values can stand only once. Like-named read-outs stand apart in the source and are kept apart here. Starred links: 1 amine or outer side, 2 acyl side, 3 side chain; linkers in the order of their positions; H or OH if unused. Positions of bridges follow the written chain, without caps; N, C: chain ends. Non-standard residues stand in square brackets, D forms with d. Residues, ends and D or L forms follow the SMILES beside them. Chains are numbered I, II in the order given. Actinocin(9to1) = Cc1c2oc3c(C)ccc(C(=O)[*:1])c3nc-2c(C(=O)[*:2])c(N)c1=O; NMeV = CN[C@H](C(=O)O)C(C)C; Sar = CNCC(=O)O
# Experiments:
# [1] = 24 hour elution of vinblastine from EVOH coated stents in phosphated saline solution, HPLC; type: physicochemical; settings: for Total microgram Released / microgram Release per Hour / microgram Released: Unsterilized stent
# Protocol: Multi-Link™ stents were cleaned by placement in an ultrasonic bath of isopropyl alcohol solution for 10 minutes. The stents were dried and plasma cleaned in a plasma chamber. An EVOH solution was made with 1 gram of EVOH and 7 grams of DMSO, making an EVOH:DMSO ratio of 1:7. Vinblastine was added to the 1:7 EVOH:DMSO solution. Vinblastine constituted 2.5% by weight of the total weight of the solution. The solution was vortexed and placed in a tube. The cleaned Multi-Link™ stents were attached to mandrel wires and dipped into the solution. The coated stents were passed over a hot plate, for about 3-5 seconds, with a temperature setting of about 60° C. The coated stents were cured for 6 hours in an air box then placed in a vacuum oven at 60° C. for 24 hours. The above process was repeated twice, having a total of three layers. The average weight of the coating was 0.00005 gram, with an estimated vinblastine concentration of 12 microgram per stent. Some of the stents were sterilized by electron beam radiation. The sterilized and unsterilized vinblastine coated stents were tested for a 24 hour elution period by placing one sterilized and one unsterilized stent in 5 ml of phosphated saline solution (pH 7.4) at room temperature with rotational motion. The amount of vinblastine eluted was evaluated by High Performance Liquid Chromatography (HPLC) analysis. The results of this test are given below and plotted in FIG. 7.
# [2] = system: Medial smooth muscle cells (SMC); assay: Inhibition of SMC proliferation, thymidine incorporation; type: cell-based; settings: Rattus norvegicus, read-out: IC50 (concentration at which 50% of the cells stop proliferating)
# Protocol: Medial smooth muscle cells (SMC) were isolated from rat aorta and cultured according to explant methods known to one of ordinary skill in the art. Cells were harvested via trypsinization and subcultivated. Cells were identified as vascular SMC through their characteristic hill-and-valley growth pattern as well as indirect immunofluorescence with monoclonal anti SMC α-actin. Studies were performed with cells at passage 3-4. SMC monolayers were established on 24 well culture dishes, scrape wounded and treated with actinomycin D, mytomycin and docetaxel. The cells were exposed to the drug solution of different concentrations for 2 hours and then washed with buffered saline solution. The proliferation of the cells was quantified by standard technique of thymidine incorporation.
# The IC50 (concentration at which 50% of the cells stop proliferating) of actimomycin D was 10^−9M as compared to 5×10^−5M for mitomycin and 10^−6M for docetaxel.
# [3] = system: Porcine Coronary Artery Model; assay: Reduction in restenosis in the porcine coronary artery model, drug delivered with microporous balloon catheter; type: in vivo, Domestic swine; settings: for Percent Diameter Stenosis (QCA): 28-day endpoint; for Percent Stenosis (IEL area-lumen area)/IEL area / Residual Lumen (Lumen area)/IEL area: histomorphometric
# Protocol: Porcine coronary models were used to assess the degree of the inhibition of neointimal formation in the coronary arteries of a porcine stent injury model by actinomycin D, delivered with a microporous balloon catheter (1×10^6 pores/mm^2 with sizes ranging from 0.2-0.8 micron).
# The preclinical animal testing was performed in accordance with the NIH Guide for Care and Use of Laboratory Animals. Domestic swine were utilized to evaluate effect of the drug on the inhibition of the neointimal formation. Each testing procedure, excluding the angiographic analysis at the follow-up endpoints, was conducted using sterile techniques. During the study procedure, the activated clotting time (ACT) was monitored regularly to ensure appropriate anticoagulation. Base line blood samples were collected for each animal before initiation of the procedure. Quantitative coronary angiographic analysis (QCA) and intravascular ultrasound (IVUS) analysis was used for vessel size assessment.
# The vessels at the sites of the delivery were denuded by inflation of the PTCA balloons to 1:1 balloon to artery ratio and moving the balloons back and forth 5 times. The drug was delivered to the denuded sites at 3.5 atm (3.61 Kg/sq cm) for 2 minutes using the microporous balloon catheters before stent deployment. The average volume of delivery was about 3.3+/−1.2 ml. Following drug delivery, stents were deployed at the delivery site such that final stent to artery ratio was 1.1:1.
# QCA and IVUS analyses were used for stent deployment guidance. Pre-stenting IVUS measurements of the lumen size at the targeted vessel sites were performed for determination of the balloon (size) inflation pressure. Quantitative analysis of the stented coronary arteries to compare pre-stenting, post-stenting, follow-up minimal luminal diameters, stent recoil, and balloon/stent to artery ratio were performed. Following stent implantation and final angiogram, all devices were withdrawn and the wounds closed; the animals were allowed to recover from anesthesia as managed by the attending veterinarian or animal care professionals at the research center.
# Upon return to the research laboratory at the 28-day endpoint, angiographic assessments were performed. Coronary artery blood flow was assessed and the stented vessels were evaluated to determine minimal lumen diameter. The animals were euthanized following this procedure at the endpoint. Following euthanasia, the hearts were pressure perfusion fixed with formalin and prepared for histological analysis, encompassing light microscopy, and morphometry. Morphometric analysis of the stented arteries included assessment of the position of the stent struts and determination of vessel/lumen areas, percent (%) stenosis, injury scores, intimal and medial areas and intima/media ratios. Percent stenosis is quantitated by the following equation: 100(IEL area−lumen area)/IEL area
# where IEL is the internal elastic lamia.
# The control group of animals received delivery of water instead of the drug. The test group of animals received actinomycin D in two different concentration of 10^−5M and 10^−4M. […] FIGS. 9A and 9B illustrate sample pictures of the histology slides of the coronary vessels from the control and the Dose 1 group, respectively.
# [4] = system: porcine coronary arteries; assay: Positive remodeling: actinomycin D/EVOH coated stents in porcine coronary arteries, 28 days; type: in vivo
# Source text: In vivo data is provided illustrated positive remodeling caused by the application of actinomycin D. Stents coated with EVOH impregnated with actinomycin D and a control group of stents coated with EVOH free from actinomycin D were implanted in porcine coronary arteries. The animals were sacrificed at the end of 28 days. […] The index of remodeling was 1.076 (8.54/7.94).
# FIGS. 10A and 10B illustrate sample pictures of the histology slides of the coronary vessels from the control group 64 RCA (Right Coronary […]) and the actinomycin D loaded stent group 68 LAD (Left Anterior Descending), respectively. The stent used was an Advanced Cardiovascular Systems Multi-Link Duet™ (stainless steel). As is illustrated by FIG. 10B, the positive remodeling of EEL 80, caused by the application of actinomycin D, creates a gap between stent struts 82 and EEL 80. Thrombus deposits, illustrated by reference number 84, are formed in the gap over time. The use of a self-expandable stent eliminates the formation of the gap as the stent self-expands in response to the positive remodeling of IEL. Thrombus deposits can be, accordingly, eliminated.
# Actinomycin D induces the positive remodeling of the vessel walls, more particularly positive remodeling of the external elastic lamina (EEL) of a blood vessel wall. Positive remodeling is generally defined as the ability of the vessel walls to structurally adapt, by increasing in lumen size, to chronic stimuli. A positively remodeled lumen wall has a greater diameter or size as compared to a lumen wall which has not been subjected to the remodeling effect. Accordingly, the flow of blood through the remodeled site is increased—flow which would have otherwise been reduced because of, for example, the presence of plaque build-up or migration and proliferation of cells. The index of remodeling is defined by the ratio of the area circumscribed by the EEL of the lesion site to the area circumscribed by the EEL of a reference site. As a result of the positive remodeling of the EEL, the internal elastic lamina (IEL), in response, can also increases in area or diameter. Actinomycin D, or analogs or derivative thereof, not only can inhibit abnormal or inappropriate migration and/or proliferation of smooth muscle cells, which can lead to restenosis, but can also induce positive remodeling of the blood vessel walls. Thus the widening of the diseased region becomes more pronounced.
# [5] = Sterilized stent, Time 0.5 Hours
# [6] = Sterilized stent, Time 24 Hours
# [7] = average of vessel sections, 28 days
# [8] = individual vessel sections (ID # animal, artery, d/m/p), 28 days
# [9] = 2 hours drug exposure, scrape wounded SMC monolayers, passage 3-4
compound,measurement,setting,value
CC[C@]1(O)C[C@@H]2CN(CCc3c([nH]c4ccccc34)[C@@](C(=O)OC)(c3cc4c(cc3OC)N(C)[C@H]3[C@@](O)(C(=O)OC)[C@H](OC(C)=O)[C@]5(CC)C=CCN6CC[C@]43[C@@H]65)C2)C1 [Vinblastine],μg Release,"[1]; Sterilized (electron beam) stent, Time 0 Hours",0 µg
same,Total μg Released,"[1]; Sterilized stent, Time 0 Hours",0 µg
same,μg Release per Hour,"[1]; Sterilized stent, Time 0 Hours",0 μg per Hour
same,Total μg Released,[1]; [5],2.14 µg
same,μg Release,[1]; [5],2.14 µg
same,μg Release per Hour,[1]; [5],4.28 μg per Hour
same,Total μg Released,"[1]; Sterilized stent, Time 3 Hours",3.84 µg
same,μg Release,"[1]; Sterilized stent, Time 3 Hours",1.7 µg
same,μg Release per Hour,"[1]; Sterilized stent, Time 3 Hours",0.68 μg per Hour
same,Total μg Released,"[1]; Sterilized stent, Time 4 Hours",4.12 µg
same,μg Release,"[1]; Sterilized stent, Time 4 Hours",0.28 µg
same,μg Release per Hour,"[1]; Sterilized stent, Time 4 Hours",0.28 μg per Hour
same,Total μg Released,"[1]; Sterilized stent, Time 6 Hours",4.38 µg
same,μg Release,"[1]; Sterilized stent, Time 6 Hours",0.26 µg
same,μg Release per Hour,"[1]; Sterilized stent, Time 6 Hours",0.13 μg per Hour
same,Total μg Released,[1]; [6],6.43 µg
same,μg Release,[1]; [6],2.05 µg
same,μg Release per Hour,[1]; [6],0.11 μg per Hour
same,Total microgram Released,[1]; Time 0 Hours,0 microgram
same,microgram Release per Hour,[1]; Time 0 Hours,0 microgram per Hour
same,microgram Released,"[1]; Time 0 Hours, pH 7.4, room temperature",0 microgram
same,Total microgram Released,[1]; Time 0.5 Hours,2.12 microgram
same,microgram Release per Hour,[1]; Time 0.5 Hours,4.24 microgram per Hour
same,microgram Released,[1]; Time 0.5 Hours,2.12 microgram
same,Total microgram Released,[1]; Time 3 Hours,4.03 microgram
same,microgram Release per Hour,[1]; Time 3 Hours,0.76 microgram per Hour
same,microgram Released,[1]; Time 3 Hours,1.91 microgram
same,Total microgram Released,[1]; Time 4 Hours,4.30 microgram
same,microgram Release per Hour,[1]; Time 4 Hours,0.27 microgram per Hour
same,microgram Released,[1]; Time 4 Hours,0.27 microgram
same,Total microgram Released,[1]; Time 6 Hours,4.68 microgram
same,microgram Release per Hour,[1]; Time 6 Hours,0.19 microgram per Hour
same,microgram Released,[1]; Time 6 Hours,0.38 microgram
same,Total microgram Released,[1]; Time 24 Hours,6.38 microgram
same,microgram Release per Hour,[1]; Time 24 Hours,0.09 microgram per Hour
same,microgram Released,[1]; Time 24 Hours,1.7 microgram
"Cc1c2oc3c(C)ccc(C(=O)N[C@@H]4C(=O)N[C@H](C(C)C)C(=O)N5CCC[C@H]5C(=O)N(C)CC(=O)N(C)[C@@H](C(C)C)C(=O)O[C@@H]4C)c3nc-2c(C(=O)N[C@@H]2C(=O)N[C@H](C(C)C)C(=O)N3CCC[C@H]3C(=O)N(C)CC(=O)N(C)[C@@H](C(C)C)C(=O)O[C@@H]2C)c(N)c1=O [actinomycin D] (I: T[dV]P[Sar][NMeV] / II: T[dV]P[Sar][NMeV]; ester I:1-I:C, II:1-II:C; linker I:N-II:N via Actinocin(9to1))",IC50,[2]; 2 h,0.001 µM
same,Percent Diameter Stenosis (QCA),[3]; DOSE 1 1E−05M (n = 10),36.8 +/− 9.7%
same,Percent Diameter Stenosis (QCA),[3]; DOSE 2 1E−04M (n = 7),32.3+/−11.7%
same,Percent Stenosis (IEL area-lumen area)/IEL area,[3]; DOSE 1 1E−05M (n = 30),51.8 +/− 13.8%
same,Residual Lumen (Lumen area)/IEL area,[3]; DOSE 1 1E−05M (n = 30),0.49 +/− 0.14
same,Percent Stenosis (IEL area-lumen area)/IEL area,[3]; DOSE 2 1E−04M (n = 21),54.1 +/− 11.7%
same,Residual Lumen (Lumen area)/IEL area,[3]; DOSE 2 1E−04M (n = 21),0.46 +/− 0.08
same,AVG % EEL growth,[4]; ActD vs EVOH,7.486%
same,AVG % IEL growth,[4]; ActD vs EVOH,13.18%
same,index of remodeling,"[4]; EEL area drug coated / EVOH control (8.54/7.94), 28 days",1.076
same,EEL Area AVG,[4]; [7],8.5425 mm^2
same,IEL Area AVG,[4]; [7],7.4727 mm2
same,EEL Area,[4]; [8],9.2545 mm^2 and 9.2515 mm^2 and 8.7854 mm^2 and 9.5164 mm^2 and 9.1504 mm^2 and 9.6679 mm^2 and 9.1237 mm^2 and 9.9849 mm^2 and 9.4765 mm^2 and 7.4424 mm^2 and 9.1462 mm^2 and 8.9504 mm^2 and 8.9117 mm^2 and 8.7533 mm^2 and 7.3249 mm^2 and 7.1061 mm^2 and 8.5830 mm^2 and 7.4498 mm^2 and 8.2509 mm^2 and 7.7342 mm^2 and 7.9207 mm^2 and 6.9926 mm^2 and 8.3883 mm^2 and 7.8546 mm^2
same,IEL Area,[4]; [8],8.3785 mm2 and 8.5819 mm2 and 8.0964 mm2 and 8.6879 mm2 and 8.0914 mm2 and 8.7181 mm2 and 8.0273 mm2 and 8.5222 mm2 and 8.3796 mm2 and 6.4219 mm2 and 7.7757 mm2 and 7.5392 mm2 and 7.6573 mm2 and 6.9749 mm2 and 6.2815 mm2 and 5.9760 mm2 and 7.6195 mm2 and 6.3785 mm2 and 7.5206 mm2 and 6.9992 mm2 and 6.9632 mm2 and 6.0418 mm2 and 7.4794 mm2 and 6.2324 mm2
CC(=O)O[C@@]12CO[C@@H]1C[C@H](O)[C@@]1(C)C(=O)[C@H](O)C3=C(C)[C@@H](OC(=O)[C@H](O)[C@@H](NC(=O)OC(C)(C)C)c4ccccc4)C[C@@](O)([C@@H](OC(=O)c4ccccc4)[C@H]21)C3(C)C [docetaxel],IC50,[2]; [9],1 µM
CO[C@@]12[C@H](COC(N)=O)C3=C(C(=O)C(C)=C(N)C3=O)N1C[C@@H]1N[C@@H]12 [mitomycin],IC50,[2]; [9],50 µM
